The experiment deals with human TLR7 (Homo sapiens (Human), UniProt Q9NYK1). In words: Test for evaluating the inhibition of the activation of human TLR7 (SEAP reporter, TLR7/NF-κB/SEAPorter HEK293 cell). Type of experiment: cell-based. The following applies: R-848 200 nmol/L; for inhibitory effect against TLR7 in the test for evaluating inhibition of the activation of TLR7: SEAP activity, result in words; for IC50: SEAP reporter. An outline of the steps: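 The readout is secreted alkaline phosphatase under NF-κB response-element control in TLR7/NF-κB/SEAPorter HEK293 cells, which stably express full-length human TLR7. Cells were plated at 5×10^4 per well and grown overnight at 37° C, 5% CO2, in DMEM/10% FBS/blasticidin.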
Chain of human TLR7 (Q9NYK1 27-1049): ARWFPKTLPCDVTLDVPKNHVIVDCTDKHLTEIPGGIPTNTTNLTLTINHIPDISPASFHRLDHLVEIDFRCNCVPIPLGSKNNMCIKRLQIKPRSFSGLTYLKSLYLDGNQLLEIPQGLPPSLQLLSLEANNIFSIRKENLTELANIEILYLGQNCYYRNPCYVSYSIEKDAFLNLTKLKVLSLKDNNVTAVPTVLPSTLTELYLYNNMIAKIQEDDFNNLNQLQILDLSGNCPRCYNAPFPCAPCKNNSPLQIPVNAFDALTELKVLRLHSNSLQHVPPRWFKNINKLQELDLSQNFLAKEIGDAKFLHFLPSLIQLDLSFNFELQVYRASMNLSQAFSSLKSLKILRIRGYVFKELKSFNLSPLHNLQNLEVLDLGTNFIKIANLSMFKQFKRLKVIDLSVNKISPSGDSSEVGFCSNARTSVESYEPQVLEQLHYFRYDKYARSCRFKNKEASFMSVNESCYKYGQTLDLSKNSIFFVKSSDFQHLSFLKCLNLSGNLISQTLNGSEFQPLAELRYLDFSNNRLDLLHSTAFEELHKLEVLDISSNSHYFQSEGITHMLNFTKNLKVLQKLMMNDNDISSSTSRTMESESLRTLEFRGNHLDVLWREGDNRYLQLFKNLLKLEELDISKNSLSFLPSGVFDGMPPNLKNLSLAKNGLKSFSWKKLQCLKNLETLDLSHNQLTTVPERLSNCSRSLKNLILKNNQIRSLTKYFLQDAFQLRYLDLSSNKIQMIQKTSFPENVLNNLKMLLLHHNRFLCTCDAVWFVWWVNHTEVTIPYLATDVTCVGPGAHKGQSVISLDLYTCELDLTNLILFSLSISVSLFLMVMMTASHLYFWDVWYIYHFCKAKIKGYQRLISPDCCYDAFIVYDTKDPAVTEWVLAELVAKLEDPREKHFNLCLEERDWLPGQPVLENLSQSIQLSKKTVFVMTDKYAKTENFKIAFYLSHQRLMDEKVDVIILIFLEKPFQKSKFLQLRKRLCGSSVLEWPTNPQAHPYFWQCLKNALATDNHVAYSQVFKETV

`CCOc1nc(C)c2nc(-c3cncc(F)c3)n(Cc3ccc(CN4CCCCC4)cc3)c2n1` [Example 264]: the “inhibitory effect against TLR7 in the test for evaluating inhibition of the activation of TLR7” value (“inhibitory effect against TLR7” below) was “potent inhibitory effect against TLR7” and the IC50 was 63 nM.
In the case of `CCOc1nc(C)c2nc(-c3cncc(F)c3)n(Cc3ccc(CN4[C@@H]5CC[C@H]4CN(C)C5)cc3)c2n1` [Example 265], the “inhibitory effect against TLR7” value is reported as “potent inhibitory effect against TLR7” and the IC50 came to 57 nM.
For `CCOc1nc(C)c2nc(-c3cncc(F)c3)n(Cc3ccc(CN(CC)CC)cc3)c2n1` [Example 266] the same measures were “potent inhibitory effect against TLR7” and 29 nM.
For `CCOc1nc(C)c2nc(-c3cncc(F)c3)n(Cc3cnn(CC4CCCNC4)c3)c2n1` (stereo not shown) [Example 268], half-maximal inhibition (IC50) was put at 27 nM.
The same measure, in the same setting: to `CCOc1nc(C)c2nc(-c3cncc(F)c3)n(Cc3cnn(CC4CCCNC4)c3)c2n1` (stereo not shown) [Example 269] belongs 19 nM; to `CCOc1nc(C)c2nc(-c3cncc(F)c3)n(Cc3cnn(CC4CCNC4)c3)c2n1` (stereo not shown) [Example 270], 272 nM; to `CCOc1nc(C)c2nc(-c3cncc(F)c3)n(Cc3cnn(CC4CCNC4)c3)c2n1` (stereo not shown) [Example 271], 99 nM.
Turning to `CCOc1nc(C)c2nc(-c3cncc(F)c3)n(Cc3cnn(CC4CN(C)CCO4)c3)c2n1` (stereo not shown) [Example 272], 261 nM corresponded to half-maximal inhibition (IC50).
Still for that read-out and setting: then `CCOc1nc(C)c2nc(-c3cncc(F)c3)n(Cc3cnn(CC4CN(C)CCO4)c3)c2n1` (stereo not shown) [Example 273], with 200 nM.
`CCOc1nc(C)c2nc(-c3cncc(F)c3)n(Cc3cnn(CC4COCCN4C)c3)c2n1` (stereo not shown) [Example 274] showed an IC50 of 100 nM.
For the molecule `CCOc1nc(C)c2nc(-c3cncc(F)c3)n(Cc3cnn(CC4CCCN(C)C4)c3)c2n1` (stereo not shown) [Example 276], the “inhibitory effect against TLR7” value was “potent inhibitory effect against TLR7” and the IC50 stood at 24 nM.
As for `CCOc1nc(C)c2nc(-c3cncc(F)c3)n(Cc3cnn(CC4CCCN(C)C4)c3)c2n1` (stereo not shown) [Example 277], the “inhibitory effect against TLR7” value is reported as “potent inhibitory effect against TLR7” and it took 23 nM to reach half-maximal inhibition (IC50).
For `CCOc1nc(C)c2nc(-c3cncc(F)c3)n(Cc3cnn(CC4CCN(C)C4)c3)c2n1` (stereo not shown) [Example 278] the same measures were “potent inhibitory effect against TLR7” and 72 nM.
With `CCOc1nc(C)c2nc(-c3cncc(F)c3)n(Cc3cnn(CC4CCN(C)C4)c3)c2n1` (stereo not shown) [Example 279], the “inhibitory effect against TLR7” value is given as “potent inhibitory effect against TLR7” and half-maximal inhibition (IC50) was put at 40 nM.
The matching figures for `COc1nc(C)c2nc(-c3cncc(F)c3)n(Cc3ccc(CN4C[C@@H]5C[C@H]4CN5C)cc3F)c2n1` [Example 280, 9-(2-fluoro-4-{[(1S,4S)-5-methyl-2,5-diazabicyclo[2.2.1]hept-2-yl]methyl}benzyl)-8-(5-fluoropyridin-3-yl)-2-methoxy-6-methyl-9H-purine]: “potent inhibitory effect against TLR7” and 3 nM.
Regarding `CCOc1nc(C)c2nc(-c3cncc(F)c3)n(Cc3cnc(CC4CCN(C)CC4)cc3OC)c2n1` [Example 281], the IC50 amounted to 142 nM.
Consider `COc1nc(C)c2nc(-c3cncc(F)c3)n(Cc3ccc(C4CCN(C)CC4)cc3F)c2n1` [Example 282, 9-[2-fluoro-4-(1-methylpiperidin-4-yl)benzyl]-8-(5-fluoropyridin-3-yl)-2-methoxy-6-methyl-9H-purine], for which the “inhibitory effect against TLR7” value is on record as “potent inhibitory effect against TLR7” and the IC50 stood at 8 nM.
For the molecule `COc1nc(C)c2nc(-c3cncc(F)c3)n(Cc3ccc(CC4CCN(C)CC4)cc3F)c2n1` [Example 283], the “inhibitory effect against TLR7” value is listed as “potent inhibitory effect against TLR7” and half-maximal inhibition (IC50) was put at 21 nM.
The matching figures for `CCN1CCC(c2ccc(Cn3c(-c4cncc(F)c4)nc4c(C)nc(OC)nc43)c(F)c2)CC1` [Example 284, 9-[4-(1-ethylpiperidin-4-yl)-2-fluorobenzyl]-8-(5-fluoropyridin-3-yl)-2-methoxy-6-methyl-9H-purine]: “potent inhibitory effect against TLR7” and 3 nM.
For `COc1nc(C)c2nc(-c3cncc(F)c3)n(Cc3ccc(O[C@H]4C[C@H]5CC[C@@H](C4)N5C)cc3F)c2n1` [Example 285, 9-(2-fluoro-4-{[(3-endo)-8-methyl-8-azabicyclo[3.2.1]oct-3-yl]oxy}benzyl)-8-(5-fluoropyridin-3-yl)-2-methoxy-6-methyl-9H-purine] the same measures were “potent inhibitory effect against TLR7” and 2 nM.
Take `COc1nc(C)c2nc(-c3cncc(F)c3)n(Cc3ccc(OCC4CN(C)C4)cc3F)c2n1` [Example 286, 9-{2-fluoro-4-[(1-methylazetidin-3-yl)methoxy]benzyl}-8-(5-fluoropyridin-3-yl)-2-methoxy-6-methyl-9H-purine]: the “inhibitory effect against TLR7” value is “potent inhibitory effect against TLR7” and the IC50 was found to be 26 nM.
Take `CCN1CC(COc2ccc(Cn3c(-c4cncc(F)c4)nc4c(C)nc(OC)nc43)c(F)c2)C1` [Example 287]: the “inhibitory effect against TLR7” value is on record as “potent inhibitory effect against TLR7” and the IC50 amounted to 29 nM.
For `COc1nc(C)c2nc(-c3cncc(C#N)c3)n(Cc3ccc(C4CCN(C)CC4)cc3F)c2n1` [Example 288] the same measures were “potent inhibitory effect against TLR7” and 62 nM.
The matching figures for `CCN1CCC(c2ccc(Cn3c(-c4cncc(C#N)c4)nc4c(C)nc(OC)nc43)c(F)c2)CC1` [Example 289, 5-{9-[4-(1-ethylpiperidin-4-yl)-2-fluorobenzyl]-2-methoxy-6-methyl-9H-purin-8-yl}pyridine-3-carbonitrile]: “potent inhibitory effect against TLR7” and 30 nM.
For `COc1nc(C)c2nc(-c3cncc(F)c3)n(Cc3ccc(C4CCN(C)C4)cc3F)c2n1` (stereo not shown) [Example 290, 9-[2-fluoro-4-(1-methylpyrrolidin-3-yl)benzyl]-8-(5-fluoropyridin-3-yl)-2-methoxy-6-methyl-9H-purine] the same measures were “potent inhibitory effect against TLR7” and 22 nM.
As to `CCN1CCC(c2ccc(Cn3c(-c4cncc(F)c4)nc4c(C)nc(OC)nc43)c(F)c2)C1` (stereo not shown) [Example 291, 9-[4-(1-ethylpyrrolidin-3-yl)-2-fluorobenzyl]-8-(5-fluoropyridin-3-yl)-2-methoxy-6-methyl-9H-purine], the “inhibitory effect against TLR7” value is given as “potent inhibitory effect against TLR7” and the midpoint of inhibition, the IC50, lay at 17 nM.
For `COc1nc(C)c2nc(-c3cccnc3)n(Cc3ccc(C4CCN(C)CC4)cc3F)c2n1` [Example 292, 9-[2-fluoro-4-(1-methylpiperidin-4-yl)benzyl]-2-methoxy-6-methyl-8-(pyridin-3-yl)-9H-purine] the same measures were “potent inhibitory effect against TLR7” and 39 nM.
With `CCN1CCC(c2ccc(Cn3c(-c4cccnc4)nc4c(C)nc(OC)nc43)c(F)c2)CC1` [Example 293, 9-[4-(1-ethylpiperidin-4-yl)-2-fluorobenzyl]-2-methoxy-6-methyl-8-(pyridin-3-yl)-9H-purine], the “inhibitory effect against TLR7” value was “potent inhibitory effect against TLR7” and the IC50 was 18 nM.
The matching figures for `COc1nc(C)c2nc(-c3cncnc3)n(Cc3ccc(OC4CC5CCC(C4)N5C)cc3F)c2n1` (stereo not drawn) [Example 294, 9-(2-fluoro-4-{[(3-endo)-8-methyl-8-azabicyclo[3.2.1]oct-3-yl]oxy}benzyl)-2-methoxy-6-methyl-8-(pyrimidin-5-yl)-9H-purine]: “potent inhibitory effect against TLR7” and 19 nM.
As to `COc1nc(C)c2nc(-c3cncc(C#N)c3)n(Cc3ccc(OC4CC5CCC(C4)N5C)cc3F)c2n1` (stereo not drawn) [Example 295, 5-[9-(2-fluoro-4-{[(3-endo)-8-methyl-8-azabicyclo[3.2.1]oct-3-yl]oxy}benzyl)-2-methoxy-6-methyl-9H-purin-8-yl]pyridine-3-carbonitrile], the “inhibitory effect against TLR7” value is on record as “potent inhibitory effect against TLR7” and the IC50 was found to be 13 nM.
Turning to `CCN1C2CCC1CC(Oc1ccc(Cn3c(-c4cncc(C#N)c4)nc4c(C)nc(OC)nc43)c(F)c1)C2` (stereo not drawn) [Example 296, 5-[9-(4-{[(3-endo)-8-ethyl-8-azabicyclo[3.2.1]oct-3-yl]oxy}-2-fluorobenzyl)-2-methoxy-6-methyl-9H-purin-8-yl]pyridine-3-carbonitrile], the “inhibitory effect against TLR7” value is recorded as “potent inhibitory effect against TLR7” and the IC50 came to 21 nM.
For `COc1nc(C)c2nc(-c3cccnc3)n(Cc3ccc(OC4CC5CCC(C4)N5C)cc3F)c2n1` (stereo not drawn) [Example 297, 9-(2-fluoro-4-{[(3-endo)-8-methyl-8-azabicyclo[3.2.1]oct-3-yl]oxy}benzyl)-2-methoxy-6-methyl-8-(pyridin-3-yl)-9H-purine] the same measures were “potent inhibitory effect against TLR7” and 50 nM.
As for `CCOc1nc(C)c2nc(-c3cncc(F)c3)n(Cc3cnn(CCN4CCN(C)CC4)c3)c2n1` [Example 300], the “inhibitory effect against TLR7” value is given as “potent inhibitory effect against TLR7” and the IC50 is 28 nM.

For the origin of these results see patent US10703755B2, “Substituted purine derivative” (SUMITOMO DAINIPPON PHARMA CO., LTD., priority 2016, dated 2020).
